According to article PMC11245370, “3-Position Biaryl Endochin-like Quinolones with Enhanced Antimalarial Performance” (ACS Infectious Diseases, 2024):
Values joined by “and” are separate entries in the source; they are usually repeats but may differ in a detail not shown here. Identical values can stand only once. Like-named read-outs stand apart in the source and are kept apart here.

What was measured:
[1] = biological target: human liver cytochrome bc1 complex (Homo sapiens, UniProt P00156); assay: Human cytochrome bc1 assay (liver mitochondrial preparation)
Protocol: All use of human tissue was approved by the OHSU IRB. Approximately 10 g of human liver tissue was obtained intraoperatively and placed in ice-cold PBS containing 5 mM glucose. [Note: The specimen was obtained from grossly normal tissue that was resected around the margins of a tumor as part of the standard surgical treatment for hepatic tumors.] Liver was homogenized using a razor blade followed by a Dounce homogenizer. HALT Protease Inhibitor Cocktail (Pierce) was added per the manufacturer’s instructions. A crude mitochondrial fraction was prepared by differential centrifugation as described in Renault et al.[35] The final pellet was resuspended in storage buffer (50 mM tricine, 100 mM KCl, 2 mM NaN, 2.0% dodecyl-beta-D-maltoside, 30% glycerol, pH 8.0). Aliquots of this mitochondrial preparation were frozen in a dry ice–ethanol bath and stored at −80 °C until use.
Two microliters of mitochondrial preparation was resuspended in the assay buffer (50 mM tricine, 100 mM KCl, 2 mM NaN3, 0.1% dodecyl-beta-D-maltoside). […] Antimycin A was dissolved in ethanol as a 1 mM stock. Decylubiquinone was reduced to decylubiquinol with an excess of NaBH4, and the excess NaBH4 was subsequently quenched with hydrochloric acid. […] The rate of the nonenzymatic reaction of cytochrome c and decylubiquinol was measured separately in the absence of mitochondrial preparation and found to be insignificant. […]

[2] = tested on: P. falciparum drug-sensitive D6 strain; assay: SYBR Green I antiplasmodial assay, D6 strain; assay type: cell-based; conditions: Plasmodium falciparum, D6, 72 h, read-out: P. falciparum IC50 values, D6
Protocol: (§1) All of this information is stored in a database with information relating to chemical structure, physical chemical properties, cross resistance patterns, mammalian cell cytotoxicity, enzyme inhibitor profiles, and synthesis details. Pharmacological data and in vivo efficacy data are also stored in the database for molecules of particular interest. […] We synthesized the compound in an initial batch size of about 800 mg as described above. […] Fluorescence readings were captured with a fluorescence plate reader and processed by nonlinear regression analysis using the GraphPad Prism software to provide IC50 values for each determination. Stock solutions were freshly prepared daily in DMSO in glass vials.
(§2) Laboratory strains of P. falciparum were cultured in human erythrocytes by standard methods. The parasites were grown in culture medium with fresh human erythrocytes maintained at 2% hematocrit at 37 °C in low-oxygen conditions (5% O2, 5% CO2, 90% N2). […] Cultures were maintained at less than 10% parasitemia by transfer of infected cells to fresh erythrocytes and culture medium every 3 or 4 days.
(§3) SYBR green I assay. In vitro antiplasmodial activity was assessed using a published SYBR Green I fluorescence-based method.[20] The drugs were added to 96-well plates using twofold serial dilutions in complete medium. […] Asynchronous P. falciparum parasites were diluted with uninfected erythrocytes and added to the wells to give a final culture volume of 100 μL at 2% hematocrit and 0.2% parasitemia. […] The parasites were then lysed by adding 100 μL of SYBR green I lysis buffer containing 0.2 μL/ml SYBR green I dye (10,000×) in 20 mM Tris (pH 7.5), 5 mM EDTA, 0.008% (wt/vol) saponin, and 0.08% (v/v) Triton X-100. The plates were incubated at room temperature for an hour in the dark. […] If the IC50 value fell outside of the initially tested range, then the range was adjusted up or down, and the assay was repeated twice.

[3] = HepG2 cytotoxicity / mitochondrial toxicity (TiterGlo ATP, galactose medium); conditions: human
Protocol: HepG2 was routinely cultured in DMEM containing 10% fetal calf serum and 100 IU/mL penicillin and 100 μg/mL streptomycin (complete medium). For studies to investigate the potential for mitochondrial toxicity by selected 3-biaryl-ELQs, the medium contained galactose rather than glucose to force the cells to produce ATP through oxidative phosphorylation, which in turn makes them sensitive to mitochondrial toxicants.[36] […] After this period, the culture medium was removed, and the cells were shifted to galactose-containing medium with test drugs at concentrations ranging from 0 to 10 μM. Drug dilutions were prepared from DMSO stocks into galactose-containing medium. […] After incubation, the contents of each well were removed, and 25 μL of TiterGlo II reagent mix containing luciferase, detergent, and luciferin was added to each well along with 25 μL of culture medium. […] At this point, the plates were read on a luminometer (SpectraMax iD3 iD5Multi-Mode Microplate Reader), and the data were processed to yield the percent decrease in ATP production relative to no-drug control values. These values reflect the potential damage caused by mitochondrial toxicants due to reduced intracellular ATP levels caused by interference with the human mitochondrial electron transport chain. Assays were set up in triplicate.

[4] = Metabolic stability in liver microsomes, mouse; assay type: in vitro ADME; conditions: pooled mouse liver microsomes, pH 7.4; mouse liver microsomes 0.5 mg/mL, NADPH, 37 °C, 45 min, 1 μM
Protocol: (§4) […]. Samples were taken over the interval of 45 min and analyzed by LC–MS/MS for the presence of test compound. Ketanserin served as an internal standard for the metabolic rate of a drug with known intermediate stability. […].
(§5) The drug was incubated at 37 °C and 1 μM concentration in murine liver microsomes (Corning) for 45 min at a protein concentration of 0.5 mg/mL in potassium phosphate buffer at pH 7.4 containing 1.0 mM EDTA. The metabolic reaction was initiated by addition of NADPH and quenched with ice-cold acetonitrile at 0, 5, 15, 25, and 45 min.

[5] = tested on: P. falciparum atovaquone-resistant clinical isolate Tm90-C2B; assay: SYBR Green I antiplasmodial assay, Tm90-C2B; assay type: cell-based; conditions: Plasmodium falciparum, TM90, 72 h, read-out: P. falciparum IC50 values, Tm90-C2B
Protocol: as §1, §2, §3

[6] = tested on: P. yoelii blood-stage infection; conditions: for blood stage in vivo efficacy, 4 day Peters test results, NRD (nonrecrudescence dose) / blood stage in vivo efficacy, 4 day Peters test results, ED50 / blood stage in vivo efficacy, 4 day Peters test results, ED90: mice; for blood stage in vivo efficacy, 4 day Peters test results, NRD (nonrecrudescence dose): oral gavage days 1-4, followed to day 30; for blood stage in vivo efficacy, 4 day Peters test results, ED50 / blood stage in vivo efficacy, 4 day Peters test results, ED90: oral gavage days 1-4, parasitemia day 5, prodrugs dosed on molar equivalency to parent
Protocol: (§6) On day 5, a drop of blood was taken from the tail, and a blood smear was prepared, fixed with methanol, and stained with Giemsa. The operator then examined the stained smear microscopically to determine percent parasitemia. […] In this model, animals were inoculated exactly as for the 4 day test on day 0; however, drug was administered only on day 1, whereas smears were made on day 5 and again weekly thereafter for animals that remained aparasitemic. Animals that remained aparasitemic on day 30 were scored as cures.
The P. yoelii 4 day test monitors suppression of patent infection in female CF1 mice. The test began with the inoculation (iv) of parasitized erythrocytes (3.5 × 10^4P. yoelli) (from a donor animal) on the first day of the experiment (D0). […] Initially, the 3-biaryl-ELQs were tested at doses of 0.0025, 0.005, 0.01, 0.03, 0.1, 0.3, 1.0, and 10 mg/kg/day, including a vehicle-only (PEG400) control. After completion of drug treatment, a blood sample was collected (by pricking the tail vein) for determination of parasite burden beginning on the day after the final dose (D5). Percent parasitemia was assessed by direct microscopic analysis of Giemsa-stained blood smears. […] Animals with observable parasitemia following the experiment were euthanized; animals cleared of parasites from the bloodstream were observed daily with assessment of parasitemia performed weekly until day 30, at which point the animals were scored as cured of infection. […] Nonlinear regression analysis was used for objective determination of ED50’s and ED90’s from the accumulated data as well as the nonrecrudescence dose (NRD). The 4 day test protocol was reviewed and approved by the local IACUC board at the Portland VA Medical Center. Experiments were performed with four mice per group to ensure statistical accuracy.

[7] = Metabolic stability in liver microsomes, rat; assay type: in vitro ADME; conditions: rat, pH 7.4
[8] = Metabolic stability in liver microsomes, human; assay type: in vitro ADME; conditions: human, pH 7.4
Protocol: as §4, §5

[9] = tested on: P. falciparum multidrug-resistant Dd2 strain; assay: microbe, parasite or virus in culture; assay type: cell-based; conditions: Plasmodium falciparum, DD2, 72 h, read-out: P. falciparum IC50 values, Dd2
Protocol: as §1, §2, §3

[10] = Pharmacokinetics after single dose of ELQ-598; assay type: in vivo; conditions: for k el / Tmax / AUC(0-inf) / Cmax / half-life: mouse plasma; for bioavailability: read-out: F (oral bioavailability); for Vd / CL/F / Vdarea/F / AUCratio (molar AUC ELQ-598/AUC ELQ-596): mouse; for Vd: read-out: Vdss
Protocol: Animals had free access to food and water during the study. Following drug administration, the animals were manually restrained at the designated time points, and 100 μL of blood was withdrawn from the facial vein for semiserial sampling into heparinized tubes. Blood samples were placed on ice and centrifuged (2000g, 5 min, 4 °C) to obtain plasma. The plasma was mixed with 10% formic acid (FA) in water [plasma/10% FA (v/v = 10:1)]. […] At the outset of the study, 18 animals were randomly separated into two different groups (po and iv) of nine animals each. Blood samples were taken from three animals at each time point such that the same group of the animals was sampled at […] throughout the experiment for both po and iv arms. […] Dichlofenac was used as an internal standard.
MW is the molecular weight. The terminal elimination rate constant kel was estimated by linear least-squares regression analysis of the terminal log-linear portion of the plasma concentration–time curves by the software.

[11] = tested on: P. yoelii blood-stage infection; assay: Single-dose cure of blood-stage murine malaria; assay type: in vivo, Plasmodium yoelii; conditions: for blood stage in vivo efficacy, single dose cure: lowest single oral dose curing all four mice, day 30
Protocol: as §6
The effectiveness of selected 3-biaryl ELQs and prodrugs was assessed vs the blood-stage infection for single-dose cures. Mice were infected iv with 3.5 × 10^4P. yoelii infected RBCs as described for the 4 day test above. Drug administration occurred on the day after inoculation (day 1). Test agents were dissolved in PEG-400 and administered ig once. On the fifth day, blood films were prepared, and % parasitemia was assessed. Animals remaining parasite-free for 30 days after drug administration were considered cured. The initial dosing range was 0.25, 0.5, 1, 3, and 10 mg/kg, including a control. Experiments were performed with four mice per group to ensure statistical accuracy. The reported parameter for these studies is the lowest single dose that provides a cure to all four animals in the group.

[12] = tested on: P. falciparum ELQ-300-resistant D1 clone; assay: microbe, parasite or virus in culture; assay type: cell-based; conditions: Plasmodium falciparum, 72 h, read-out: P. falciparum IC50 values, D1
[13] = tested on: P. yoelii sporozoites (liver stage); assay: Causal prophylaxis, sporozoite challenge in mice; conditions: 1.0 mg/kg single oral dose 1 h after 10,000 P. yoelii sporozoites iv; followed 30 days
Protocol: For this study, mice were inoculated with 10,000 P. yoelii sporozoites via tail vein injections, and drug was administered by gavage an hour later and only once. We monitored for the presence of blood-stage parasites as a measure of liver-stage infection.
Mice were inoculated with 10,000 sporozoites via tail vein injection of CF1 mice treated with or without drug (dissolved in PEG400) 1 h after inoculation. […] Additional monitoring for blood-stage infection was continued for a 30 day period to confirm true causal prophylaxis against P. yoelii challenge. […] Testing involved the use of four animals per group for statistical accuracy. […] A minimum of 5000 red blood cells were examined to establish blood-stage infection. Blood smears were fixed with methanol, stained with Giemsa, and viewed under oil immersion at 1000× magnification under standard light microscopy.

[14] = male, CD1, mouse, plasma, po, 10 mg/kg, single ELQ-598 dose 10 mg/kg PO (PEG400), read-out: Tmax
[15] = male, CD1, mouse, plasma, po, 10 mg/kg
[16] = male, CD1, plasma, single ELQ-598 dose 0.3 mg/kg IV
[17] = male, CD1, plasma, single ELQ-598 dose 10 mg/kg PO, read-out: CL/F (converted)
[18] = male, CD1, single ELQ-598 dose 0.3 mg/kg IV
[19] = male, CD1, single ELQ-598 dose 0.3 mg/kg IV, elimination
[20] = male, CD1, single ELQ-598 dose 10 mg/kg PO
[21] = male, CD1, single ELQ-598 dose 10 mg/kg PO (PEG400)
[22] = male, CD1, single ELQ-598 dose 10 mg/kg PO, apparent elimination
[23] = single ELQ-598 dose 0.3 mg/kg IV
[24] = single ELQ-598 dose 10 mg/kg PO

| SMILES | IC50 [2] [nM] | IC50 [5] [nM] | blood stage in vivo efficacy, 4 day Peters test results, NRD (nonrecrudescence dose) [6] [mg/kg/day] | blood stage in vivo efficacy, 4 day Peters test results, ED50 [6] [mg/kg/day] | blood stage in vivo efficacy, 4 day Peters test results, ED90 [6] [mg/kg/day] | IC50 [9] [nM] | Tmax [10, 14] [h] | bioavailability [10, 15] [%] | Vd [10, 16] [L/kg] | CL/F [10, 17] [mL/min/kg] | AUC(0-inf) [10, 18] [ng·h/mL] | half-life [10, 19] [h] | AUC(0-inf) [10, 20] [ng·h/mL] | Cmax [10, 21] [ng/mL] | half-life [10, 22] [h] | CL/F [10, 23] [mL/min/kg] | Vdarea/F [10, 23] [L/kg] | Vdarea/F [10, 24] [L/kg] | blood stage in vivo efficacy, single dose cure [11] [mg/kg/day] | further results |
| --- | --- | --- | --- | --- | --- | --- | --- | --- | --- | --- | --- | --- | --- | --- | --- | --- | --- | --- | --- | --- |
| COc1cc2[nH]c(C)c(-c3ccc(-c4ccc(OC(F)(F)F)cc4)cc3)c(=O)c2cc1Cl [ELQ-596, 6-Chloro-7-methoxy-2-methyl-3-(4′-(trifluoromethoxy)-[1,1′-biphenyl]-4-yl)quinolin-4(1H)-one] | 1.4 | 0.7 | 0.3 | 0.01 | 0.021 | 1.6 | 4 | 73 | 0.78 | 0.283 | 12200 | 27.4 | 484000 | 6680 | 45.7 | 0.333 | 0.81 | 1.11 |  | EC50 [1]: > 10000 nM; EC50 at 24 h [3]: > 10000 nM; IC50 at 24 h [3]: > 10000 nM; half-life at 1 μM [4]: > 66.7 h; half-life at 1 μM [7]: > 66.7 h; half-life at 1 μM [8]: > 66.7 h; k el ([10]; male, CD1, in vivo, single ELQ-598 dose 0.3 mg/kg IV): 6.94e-06 s⁻¹; k el ([10]; male, CD1, in vivo, single ELQ-598 dose 10 mg/kg PO (PEG400)): 4.17e-06 s⁻¹; Tmax ([10]; male, CD1, mouse, plasma, iv, 0.3 mg/kg, single ELQ-598 dose 0.3 mg/kg IV, read-out: Tmax): 4 h; Cmax [10, 18]: 303 ng/mL; Cmax [10, 20]: 14.5 µM; Tmax ([10]; single ELQ-598 dose 0.3 mg/kg IV, 0.3 mg/kg): 2 h |
| CCN(CC)CCCC(C)Nc1ccnc2cc(Cl)ccc12 (centres unmarked) [CQ] |  |  | >64 |  |  |  |  |  |  |  |  |  |  |  |  |  |  |  | >64 |  |
| CCOC(=O)OCOc1c(-c2ccc(-c3ccc(OC(F)(F)F)cc3)cc2)c(C)nc2cc(OC)c(Cl)cc12 [ELQ-598, (((6-Chloro-7-methoxy-2-methyl-3-(4′-(trifluoromethoxy)-[1,1′-biphenyl]-4-yl)quinolin-4-yl)oxy)methylethyl carbonate] | 1.5 | 0.8 | 0.12 | 0.005 | 0.0065 | 4.4 | ≤ 2 | 0.26 | 0.09 | 398 | 757 | 0.74 | 419 | 79.4 | 5 | 6.67 | 0.42 | 173.5 | 0.3 | IC50 [12]: 734 nM; IC50 at 24 h ([3]; HepG2 cells): > 10000 nM; appearance, behavioral, or weight changes after dosing ([6]; in vivo): no appearance, behavioral, or weight changes observed; liver stage in vivo, # mice protected/total [13]: complete protection and 4/4; k el [10, 18]: 0.000258 s⁻¹; k el [10, 21]: 3.89e-05 s⁻¹; AUCratio (molar AUC ELQ-598/AUC ELQ-596) [10, 23]: 5.1%; AUCratio (molar AUC ELQ-598/AUC ELQ-596) [10, 24]: 0.07%; animals protected by single dose ([11]; 0.25 mg/kg single oral dose, four mice): two of four; effectiveness as single dose cure agent compared to ELQ-331 ([11]; blood-stage P. yoelii in mice): ~10 times; lowest fully protective single dose cure ([11]; single oral dose day 1, aparasitemic day 30, four mice, parent-drug equivalent): 0.3 mg/kg |
